Consider two molecules from patent US11020392B2, “Use of trimetazidine as a hepatoprotective medicine in prevention and treatment of liver diseases and conditions” (Martin Pharmaceuticals, Inc., priority 2015, dated 2021).

The subject of data set [1] is liver failure patients. The data set is described as follows: Clinical cohort study of trimetazidine in hepatic failure patients (ALT/AST decrease, TMZ vs DCA). The format is in vivo, human. The settings on record: after 5 days of treatment, both groups also on basic treatment incl. LOLA, FIG. 2. The source says: The single-center cohort study was adopted as the clinical trial method.
In accordance with relevant references and the results of previous trials, the number of cases shall be no less than 50. Taking into account the number of loss to follow up and possible drop-out (to be controlled around 10%), 60 cases are required to be selected (30 cases for the trial group and 30 cases for the control group).
All serious hepatitis patients enrolled between Aug. 19, 2014 and […] were put in the control group; and all those enrolled between December 9 and the application date were in the trial group.
2. Exclusion Criteria • Patients under 18 or over 70 years old; • Patients diagnosed with shock liver (ischemic liver disease); • Patients with liver failure in pregnancy or HELLP syndrome; • Patients with liver failure secondary to malignant tumor in the liver; • Patients with refractory hypotension • Patients with septic shock; • Patients about to receive liver transplant (within 8 hours); • Patients allergic to trimetazidine drug; • Patients […] of trimetazidine drug; • Abuser of drugs and/or alcohol; • Pregnant or lactation women; • Patients with recent myocardial infarct (within half a year); • Patients with serious renal inadequacy.
2. Control group: Diisopropylamine Dichloroacetate (DCA) (80 mg/D) for the control group in this trial, provided by Dandong Yichuang Pharmaceutical Co., Ltd, for a 4-week course of treatment.
3. Both trial group and control group were also given basic treatment to meet ethical requirements. […] HBV-related liver failure patients were also treated with lamivudine.
1. Alanine aminotransferase (ALT), tested by chromatometry, with products provided by Roche Diagnostics (Shanghai) Ltd.
2. Aspartate transaminase (AST), tested by chromatometry, with products provided by Roche Diagnostics (Shanghai) Ltd.

The test system of data set [2] is patients with liver failure / serious hepatitis. The data set is described as follows: Clinical cases: individual patients given oral TMZ on top of combined treatment. Format: in vivo, human. The source says: Case 1: The patient had past positive HBsAg for over 20 years, during which they took multiple reexaminations of liver function and, as the results of all color ultrasound examinations were within normal range, they were not given any special treatment. Three months before, after catching cold and overwork, they developed abdominal distension and yellow urine, and was admitted to hospital following aggravation of the condition over 6 days. On admission, they were complicated with massive seroperitoneum and serious xanthochromia throughout the skin and mucosa of their whole body, feeling serious nausea, anorexia and feebleness.
Case 2: had had yellow urine for 25 days and dry mouth and bitter taste in mouth for 10 days before they came to the First Affiliated Hospital of Zhengzhou University. […] If they had been treated with the original approach, it would probably have taken two months before they could be discharged from hospital.
Case 3: had past positive HBsAg for 8 years, without regular treatment or periodic reexamination of relevant indicators. […] They took orally some “stomach medicine” (specific medicine not known) with poor effect. After the aforesaid symptoms aggravated for half a month, with urine turning as yellow as strong tea water, they were admitted to the First Affiliated Hospital of Zhengzhou University on Jan. 21, 2015. […] In merely 12 days, the patient achieved decrease of transaminase by dozens of times, relief from the critical condition, alleviated hepatocyte inflammatory responses and a favorable condition for liver cells, and greatly shortened length of hospitalization.
Case 4: […] They felt abdominal distension and nausea, accompanied with hydroncus in lower limbs, when they were tired half a month ago. For further treatment, they were admitted to the First Affiliated Hospital of Zhengzhou University on Jan. 13, 2015. Color ultrasound examination of abdomen detected diffuse changes of echo patterns of liver, cholecystolithiasis and cholecystitis. […] The patient's liver enzyme decreased to normal level after a short period, meeting the requirements for a surgical operation. Following the operation, their abdominal pain disappeared, with liver enzyme back to normal level and improved appetite. Their quality of life improves now without any discomfort.
Case 5: had past positive HBsAg for over 10 years, with HBsAg (+), HBeAg (+) and HBcAb (+), and had atrial fibrillation over 5 years, during which they orally took traditional Chinese medicine intermittently, but without regular treatment. They complained of feebleness, nausea, dry mouth and bitter taste, and anorexia for 6 days, and was hospitalized on Jan. 31, 2015. After admission, they had ALT 1881 u/L, AST 699 u/L, and prothrombin time activity (PTA) at 26%. The patient was extremely weak, in very poor spirits, with very poor appetite. A notice of critical illness diagnosis was given. […] The patient achieved a rapid decrease of transaminase and obvious improvement of liver synthesis function, and was safe from the critical condition. They continued to take the medicine till maturity of the treatment course, to improve the hepatocyte microcirculation and excretion of bilirubin. The patient soon recovered and left hospital.

Data set [3] concerns liver failure patients. The data set is described as follows: Large-scale randomized clinical trial, 165 liver failure patients (control, LOLA, TMZ+LOLA). The source says:
We recruited totally 298 patients with liver failure according to the American and European criteria.

In data set [4] the test system is liver of liver failure patients. The data set is described as follows: PET-CT imaging of liver FDG uptake before and after treatment. To be noted: liver failure patient(s), after vs before treatment; FIG. 4. The format is in vivo, human. The source says:
Intriguingly, we were able to compare the PET-CT images before and after liver failure recovery in two participants who underwent PET-CT imaging due to suspicious liver lesions by magnet renascence imaging.

Another data set relates to Chang liver cells. Format: cell-based. To be noted: 10 mM NH4Cl; 1 mM LOLA, 1 mM TMZ, or 1 mM TMZ+1 mM LOLA; hypoxic (10% O2); FIG. 7. As for the experimental part: Chang liver cells (American Type Culture Collection No. CCL-13) was cultured in RPMI1640 medium (Solarbio) containing 10% fetal bovine serum (Gibco), 100 u/mL penicillin and 100 μg/mL […], at 37° C. and under hypoxic conditions (10% O2, 5% CO2) and saturated humidity.

A further data set deals with SD rats. The data set is described as follows: Hyperammonemia rat model (oral ammonium chloride, 30 days). The format is in vivo. The settings on record: OA (LOLA) 0.8 g/kg, TMZ 0.002 g/kg orally, or both; FIG. 8. The source says:
All five groups of rats were sacrificed after 30 days with pentobarbital anesthesia. Cardiac blood samples were collected to test blood levels of ammonia, ALT and AST. Liver biopsy specimens were collected and subject to hematoxylin-eosin (HE) staining and TUNEL staining to assess pathology.

As to Diisopropylamine Dichloroacetate [DCA], in the data set on liver failure patients [1], the “ALT decrease (k, mathematical model)” value is 67.325 and the “AST decrease (k, mathematical model)” value amounted to 142.77.

Regarding `COc1ccc(CN2CCNCC2)c(OC)c1OC.Cl.Cl` [TMZ, 1-[2,3,4-trimethoxybenzyl]piperazine dihydrochloride], in the data set on liver failure patients [1], the “ALT decrease (k, mathematical model)” value worked out at 259.4. Further, the “AST decrease (k, mathematical model)” value in the data set with liver failure patients [1] is listed as 362.53. The ALT in data set [2] (Case 1, HBsAg positive person, 12 days of TMZ one tablet three times a day plus combined treatment, ALT 270 u/L at admission) is on record as 41 u/L; in data set [2] (Case 2, serious drug-induced hepatitis, oral TMZ 20 days plus combined treatment, ALT 983 u/L at admission) it was 95 u/L; in data set [2] (Case 3, acute-on-chronic liver failure, oral TMZ plus antiviral treatment, admitted Jan. 21, reexamined February 5 (12 days), ALT 1386 u/L at admission), 76 u/L; in data set [2] (Case 4, HBsAg positive person, oral TMZ 13 days plus hepatoprotective and antiviral treatment, ALT 599 u/L before) it was 66 u/L. Moreover, the AST was determined as 68 u/L in data set [2] (Case 1, 12 days of TMZ, AST 303 u/L at admission); 52 u/L in data set [2] (Case 2, oral TMZ 20 days, AST 484 u/L at admission); 85 u/L in data set [2] (Case 3, reexamined February 5, AST 1368 u/L at admission); 79 u/L in data set [2] (Case 4, oral TMZ 13 days, AST 663 u/L before); 77 u/L in data set [2] (Case 5, one week of oral TMZ, AST 699 u/L at admission). Also, the total bilirubin in data set [2] (Case 2, oral TMZ 20 days, 401.9 umol/L at admission) amounted to 130 µmol/L. For the same molecule, in data set [2] (Case 5, one week of oral TMZ, 26% at admission), the “prothrombin time activity (PTA)” value came out at 48%. Besides, the 30-day immortality rate result in the data set with liver failure patients [3] (TMZ treatment group (TMZ+LOLA), TMZ 20 mg orally three times a day, 4 weeks, 44% with traditional therapeutic approach, FIG. 5) was “approximately 18%”. The same molecule yielded a 90-day immortality rate in the data set with liver failure patients [3] (TMZ treatment group (TMZ+LOLA), TMZ 20 mg orally three times a day, 4 weeks, 68% with traditional therapeutic approach, FIG. 5) of 35%. The “serious adverse reaction during the clinical trial” value in the data set with liver failure patients [3] (liver failure patients, TMZ 20 mg three times a day) is “no serious adverse reaction occurred”. For the same molecule, the “FDG uptake / hepatic glucose metabolism of liver (PET-CT)” value in data set [4] is “remarkably improved”. In addition, the “reduction of ammonia in hepatocytes” value with Chang liver cells is “greater effects compared to both LOLA treatment and TMZ+LOLA co-treatment”. Besides, in the data set with SD rats, the “integrity of mitochondrial structure in hepatocytes exposed to ammonia (electron microscope)” value is “nearly reversed the ammonia-induced mitochondria injury”.
